Where two headings read alike, the source gives them in different places.
Experiments:
[1] = ascending single-dose pharmacokinetic study in healthy subjects; format: in vivo, human; conditions: for AUC: t = 0 to ∞; for CL/F: read-out: mean oral-dose clearance (C1/F) (converted)
Method: A study was conducted as an ascending single-dose tolerance study with fasting administration of 500, 1000, 2000, and 4000 mg oral doses. In each cohort, 8 subjects received either placebo (2 subjects) or the prescribed dose of 2-(8,9-dioxo-2,6-diazabicyclo[5.2.0]non-1(7)-en-2-yl)ethyl]phosphonic acid (6 subjects). Subjects in the fasting 1000-mg cohort were crossed over to receive a 1000-mg postprandial dose in study period 2. Additionally, the 2000-mg dose level was repeated in a cohort of elderly subjects.

[2] = ascending multiple-dose pharmacokinetic study in healthy subjects; format: in vivo; conditions: human, plasma, po, mean ± SD; for half-life: read-out: T½ (converted)
Method: A study was conducted as an ascending multiple-dose tolerance study of 2-(8,9-dioxo-2,6-diazabicyclo[5.2.0]non-1(7)-en-2-yl)ethyl]phosphonic acid with administration of 200, 400, 800, and 1600 mg oral doses in healthy subjects over a 14-day period.

[3] = pH range of 4 to 8
[4] = ascending single-dose pharmacokinetic study in healthy subjects; format: in vivo; conditions: human, plasma, intravenous, 100 mg, 100 mg 1-hour, infusion, mean ± SD
Caco-2 cell = Caco-2 cell permeability
[5] = apparent n-octanol/water partition coefficient
[6] = animal absorption study, oral bioavailability in rats; conditions: rat, in vivo, 100 mg/kg
[7] = animal absorption study, oral bioavailability in monkeys; conditions: monkey, in vivo, 100 mg/kg
[8] = 1000 mg, after standardized high-fat, high-calorie meal versus fasting
[9] = human, plasma, po, 500 mg, 500 mg Oral, fasting, single administration, healthy subjects, mean ± SD
[10] = human, plasma, po, 1000 mg, 1000 mg Oral, fasting, single administration, healthy subjects, mean ± SD
[11] = human, plasma, po, 1000 mg, 1000 mg Oral, fed (high-fat, high-calorie meal), single administration, healthy subjects, mean ± SD
[12] = human, plasma, po, 2000 mg, 2000 mg Oral, fasting (elderly), single administration, mean ± SD
[13] = human, plasma, po, 2000 mg, 2000 mg Oral, fasting, single administration, healthy adult subjects, mean ± SD
[14] = human, plasma, po, 4000 mg, 4000 mg Oral, fasting, single administration, healthy subjects, mean ± SD
[15] = 200 mg, Multiple dose administration (day 14), 200 mg q 12 h Oral, fed
[16] = 200 mg, Single dose administration, 200 mg Oral, fasting
[17] = 400 mg, Multiple dose administration (day 14), 400 mg q 12 h Oral, fasting
[18] = 400 mg, Single dose administration, 400 mg Oral, fasting
[19] = 800 mg, Multiple dose administration (day 14), 800 mg q 12 h Oral, fasting
[20] = 800 mg, Single dose administration, 800 mg Oral, fasting
[21] = 1600 mg, Multiple dose administration (day 14), 1600 mg q 12 h Oral, fasting
[22] = 1600 mg, Single dose administration, 1600 mg Oral, fasting

With `O=c1c2c(c1=O)N(CCP(=O)(O)O)CCCN2` [[2-(8,9-dioxo-2,6-diazabicyclo[5.2.0]non-1(7)-en-2-yl)ethyl]phosphonic acid] the “lowering of mean Cmax by food” value [1, 8] was 67%, the “reduction of mean AUC by food” value [1, 8] was 57% and the “mean oral-dose clearance (C1/F), lower in elderly than in healthy adult subjects” value ([1]; 2000 mg, fasting, single-dose) was “approximately 10%”. The Tmax ([1]; human, plasma, intravenous, 100 mg, 100 mg 1-hour, infusion, healthy subjects, mean ± SD) was 0.95 ± 0.11 h, the half-life ([1]; human, plasma, intravenous, 100 mg, 100 mg 1-hour, infusion, healthy subjects, mean ± SD, read-out: T½ (converted)) was 498 ± 528 min and the Cmax [1, 9] was 320 ± 63 ng/mL. It also gave a Tmax [1, 9] of 1.9 ± 0.7 h, a half-life ([1]; human, plasma, po, 500 mg, 500 mg Oral, fasting, single administration, healthy subjects, mean ± SD, read-out: T½ (converted)) of 402 ± 384 min and an AUC [1, 9] of 2140 ± 542 ng·h/mL. The Cmax [1, 10] was 1180 ng/mL, the Tmax [1, 10] was 0.88 h and the half-life ([1]; human, plasma, po, 1000 mg, 1000 mg Oral, fasting, single administration, healthy subjects, mean ± SD, read-out: T½ (converted)) was 876 ± 558 min. It also gave an AUC [1, 10] of 5130 ng·h/mL, a Cmax [1, 11] of 392 ng/mL and a Tmax [1, 11] of 2.92 h. For the same compound, the half-life ([1]; human, plasma, po, 1000 mg, 1000 mg Oral, fed (high-fat, high-calorie meal), single administration, healthy subjects, mean ± SD, read-out: T½ (converted)) was 960 ± 600 min, the AUC [1, 11] was 2210 ng·h/mL and the Cmax [1, 12] was 1610 ± 628 ng/mL. For the same compound, the Tmax [1, 12] was 1.25 ± 0.61 h, the half-life ([1]; human, plasma, po, 2000 mg, 2000 mg Oral, fasting (elderly), single administration, mean ± SD, read-out: T½ (converted)) was 846 ± 666 min and the AUC [1, 12] was 8890 ng·h/mL. For the same compound, the Cmax [1, 13] was 1790 ± 1360 ng/mL, the Tmax [1, 13] was 1.42 ± 0.96 h and the half-life ([1]; human, plasma, po, 2000 mg, 2000 mg Oral, fasting, single administration, healthy adult subjects, mean ± SD, read-out: T½ (converted)) was 384 ± 120 min. The AUC [1, 13] was 7640 ng·h/mL, the CL/F ([1]; human, plasma, po, 2000 mg, elderly subjects, 2000 mg, fasting, single-dose) was 52.3 mL/min/kg and the CL/F ([1]; human, plasma, po, 2000 mg, healthy adult subjects, 2000 mg, fasting, single-dose) was 58.3 mL/min/kg. For the same compound, the Cmax [1, 14] was 1490 ± 436 ng/mL, the Tmax [1, 14] was 2.6 ± 1.08 h and the half-life ([1]; human, plasma, po, 4000 mg, 4000 mg Oral, fasting, single administration, healthy subjects, mean ± SD, read-out: T½ (converted)) was 546 ± 276 min. For the same compound, the AUC [1, 14] was 8980 ± 1980 ng·h/mL, the half-life ([1]; human, plasma, po, all cohorts, oral, fasting, estimates not always reliable, read-out: mean t1/2) was 360 to 960 min and the bioavailability ([1]; human, plasma, subjects in the first cohort (500 mg oral, 100 mg infusion), read-out: mean absolute bioavailability) was 4.3%. It also gave a Cmax [2, 15] of 153 ± 75 ng/mL, a Tmax [2, 15] of 1.2 ± 0.3 h and a half-life [2, 15] of 396 ± 234 min. For the same compound, the AUC ([2]; 200 mg, Multiple dose administration (day 14), 200 mg q 12 h Oral, fed, t = 0 to 12 hours (tau)) was 817 ± 265 ng·h/mL, the Cmax [2, 16] was 172 ± 90 ng/mL and the Tmax [2, 16] was 1.3 ± 0.5 h. For the same compound, the half-life [2, 16] was 210 ± 36 min, the AUC ([2]; 200 mg, Single dose administration, 200 mg Oral, fasting, t = 0 to ∞) was 699 ± 201 ng·h/mL and the Cmax [2, 17] was 398 ± 209 ng/mL. It also gave a Tmax [2, 17] of 1.6 ± 1.3 h, a half-life [2, 17] of 714 ± 624 min and an AUC ([2]; 400 mg, Multiple dose administration (day 14), 400 mg q 12 h Oral, fasting, t = 0 to 12 hours (tau)) of 1810 ± 747 ng·h/mL. It also gave a Cmax [2, 18] of 346 ± 282 ng/mL, a Tmax [2, 18] of 2 ± 1.6 h and a half-life [2, 18] of 270 ± 72 min. The AUC ([2]; 400 mg, Single dose administration, 400 mg Oral, fasting, t = 0 to ∞) was 1490 ± 371 ng·h/mL, the Cmax [2, 19] was 436 ± 151 ng/mL and the Tmax [2, 19] was 1.4 ± 0.6 h. It also gave a half-life [2, 19] of 1010 ± 528 min, an AUC ([2]; 800 mg, Multiple dose administration (day 14), 800 mg q 12 h Oral, fasting, t = 0 to 12 hours (tau)) of 2180 ± 644 ng·h/mL and a Cmax [2, 20] of 715 ± 524 ng/mL. For the same compound, the Tmax [2, 20] was 1.4 ± 0.7 h, the half-life [2, 20] was 498 ± 78 min and the AUC ([2]; 800 mg, Single dose administration, 800 mg Oral, fasting, t = 0 to ∞) was 3190 ± 800 ng·h/mL. The Cmax [2, 21] was 1510 ± 842 ng/mL, the Tmax [2, 21] was 1.4 ± 1.3 h and the half-life [2, 21] was 630 ± 396 min. For the same compound, the AUC ([2]; 1600 mg, Multiple dose administration (day 14), 1600 mg q 12 h Oral, fasting, t = 0 to 12 hours (tau)) was 4910 ± 1210 ng·h/mL, the Cmax [2, 22] was 962 ± 592 ng/mL and the Tmax [2, 22] was 1.3 ± 1.3 h. For the same compound, the half-life [2, 22] was 414 ± 102 min, the AUC ([2]; 1600 mg, Single dose administration, 1600 mg Oral, fasting, t = 0 to ∞) was 4060 ± 1320 ng·h/mL and the solubility [3] was “very soluble”. The Cmax [4] was 4010 ± 512 ng/mL, the AUC ([4]; t = 0 to ∞) was 10200 ± 1720 ng·h/mL and the Caco-2 cell permeability (Caco-2 cell) was “poor”. It also gave a logP [5] of -1.37, a bioavailability [6] of about 1% and a bioavailability [7] of about 2.5%.
